From US20260102425A1 (Allergan, Inc., priority 2018, published 2026)

Tested on: Staphylococcus aureus ATCC 29213
Assay: Time kill efficacy against Staphylococcus aureus ATCC 29213 (log drop after 30 seconds of exposure)
Format: cell-based
Description: Time kill efficacy experiments were performed against Staphylococcus aureus ATCC 29213 (S aureus). Plates with Tryptic Soy agar (TSA) were inoculated with cultures of S aureus and incubated at 30-35° C. for 24 hours. Bacterial cultures were harvested and sample suspensions were adjusted to contain approximately […] colony-forming units (CFU) per milliliter. […] After 30 seconds of exposure, 1 mL of the test suspension was removed and added to 9.0 ml of Dey-Engley neutralizer. One hundred μL of this neutralized suspension was plated in triplicates on TSA plates using an automated spiral plating instrument (Eddyjet 2, Neutec group Inc, New York, USA), with 7 log serial dilution mode. All bacterial plates were incubated at 30-35° C. for 2 days. The log drop values are determined as the difference between the logged CFU in the plates with and without the test article.

sodium chlorite was tested, and the “Δ log reduction in the presence of 0.5% Brij 35 compared to alone” value (0.5% Brij 35 added to 5% povidone-iodine or to 8000 ppm sodium chlorite activated at pH 5, FIGS. 5A-5B) was 1.6, the “Δ log reduction in the presence of 0.5% Pluronic F-127 compared to alone” value (0.5% Pluronic F-127 added to 5% povidone-iodine or to 8000 ppm sodium chlorite activated at pH 5, FIGS. 5A-5B) was 1.46 and the “Δ log reduction in the presence of 0.5% polysorbate 80 compared to alone” value (0.5% polysorbate 80 added to 5% povidone-iodine or to 8000 ppm sodium chlorite activated at pH 5, FIGS. 5A-5B) was 2.9. The “kill efficacy compared to sodium chlorite-only formulations and 5% povidone-iodine” value (800 ppm-8000 ppm sodium chlorite, pH 5 buffer, with 0.5% PS80, FIG. 2) was “more efficacious than sodium chlorite-only formulations”, the “kill efficacy compared to 5% povidone-iodine” value (4800 ppm and 6400 ppm sodium chlorite, pH 5 buffer, without PS80, FIG. 2) was “more efficacious than 5% povidone-iodine” and the “log reductions, alone” value (8000 ppm sodium chlorite activated at pH 5, alone, FIG. 5B) was 2.0-3.0. For the same substance, the “efficacy with 0.5% polysorbate 80 compared to formulations containing 0.5% Brij 35 or 0.5% Pluronic F-127” value (8000 ppm sodium chlorite activated at pH 5, FIG. 5B) was “significantly greater”, the log reduction (8000 ppm sodium chlorite activated with pH 2 buffer, 30 seconds exposure, FIG. 1, n=3) was 5.0 and the log reduction (8000 ppm sodium chlorite activated with pH 3 buffer, 30 seconds exposure, FIG. 1, n=3) was 5.0. For the same substance, the log reduction (8000 ppm sodium chlorite activated with pH 4 buffer, 30 seconds exposure, FIG. 1, n=3) was 5.0, the log reduction (8000 ppm sodium chlorite activated with pH 5 buffer, 30 seconds exposure, FIG. 1, n=3) was 2.4 and the “effect of 0.5% PS80 on log reduction” value (8000 ppm sodium chlorite pH4, 10% FBS, 0.5% PS80, FIG. 6) was “significantly increased the log reduction”. For the same substance, the “bactericidal effectiveness on addition of PS80 at lower concentrations” value (8000 ppm sodium chlorite pH 4, 10% FBS, PS80 0.015% or 0.025%, FIG. 6) was “not significantly affected”, the “effect of the presence of FBS on log reduction” value (8000 ppm sodium chlorite pH 4 and 0.5% PS80, with 10% FBS, FIG. 6) was “essentially unaffected” and the “effect of added Brij 35 on kill efficacy” value (8000 ppm sodium chlorite pH 5 plus Brij 35 0.05%-0.5%, FIG. 3) was “enhanced the efficacy”. For the same substance, the “effect of added Pluronic F-127 on kill efficacy” value (8000 ppm sodium chlorite pH 5 plus Pluronic F-127 at 0.25% and 0.5%, FIG. 4, N=1) was “appeared to augment the efficacy”, the log reduction (8000 ppm sodium chlorite, pH 4 buffer, absence of both 10% FBS and PS80, FIG. 6) was “about 5” and the log reduction (8000 ppm sodium chlorite, pH 4 buffer, in the presence of 10% FBS (organic load), no PS80, FIG. 6) was “about 2”.
